Data: ChEMBL document CHEMBL1201862, “PubChem BioAssay data set” (2004)
Each block holds one compound with its values, some of them ahead of it. Active and inactive are the calls of the source.

What was measured:
[1] = biological target: T1, RNA-binding protein pos-1 (Caenorhabditis elegans, UniProt G5EF15); test: disruptors of C. elegans POS-1 RNA interaction – biochemical, fluorescence polarization, dose response (AID 1964);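 also: purified POS-1 fused to maltose binding protein made in E. coli; potency of compounds blocking POS-1 binding to fluorescent RNA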
T1 sequence (G5EF15 whole entry): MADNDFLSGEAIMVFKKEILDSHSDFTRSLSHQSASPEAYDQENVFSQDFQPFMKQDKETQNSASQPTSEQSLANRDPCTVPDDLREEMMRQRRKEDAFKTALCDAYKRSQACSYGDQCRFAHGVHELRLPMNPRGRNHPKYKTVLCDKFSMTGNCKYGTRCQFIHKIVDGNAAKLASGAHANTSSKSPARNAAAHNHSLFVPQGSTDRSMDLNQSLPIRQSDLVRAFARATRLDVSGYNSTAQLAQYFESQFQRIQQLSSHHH

[2] = biological target: T2, Zinc finger protein mex-5 (Caenorhabditis elegans, UniProt Q9XUB2); test: potency of MEX-5 RNA-binding blockers – biochemical, C. elegans, fluorescence polarization, dose response (AID 1960)
T2 sequence (Q9XUB2 whole entry): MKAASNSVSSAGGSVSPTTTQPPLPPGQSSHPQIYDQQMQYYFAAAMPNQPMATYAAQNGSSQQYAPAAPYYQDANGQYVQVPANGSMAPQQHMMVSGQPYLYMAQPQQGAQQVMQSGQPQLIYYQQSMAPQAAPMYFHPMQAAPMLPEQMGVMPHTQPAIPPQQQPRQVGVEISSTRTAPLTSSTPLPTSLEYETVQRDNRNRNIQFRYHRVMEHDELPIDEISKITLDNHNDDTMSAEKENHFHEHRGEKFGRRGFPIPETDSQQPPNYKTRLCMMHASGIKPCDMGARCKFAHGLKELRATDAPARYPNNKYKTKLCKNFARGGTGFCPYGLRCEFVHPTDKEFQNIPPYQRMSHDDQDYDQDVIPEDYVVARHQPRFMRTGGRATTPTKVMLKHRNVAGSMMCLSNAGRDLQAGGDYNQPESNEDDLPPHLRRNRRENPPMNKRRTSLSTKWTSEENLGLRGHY

INS1 = test: INS-1E survival protection against cytokine death – cell-based, luminescence, retest, dose response (AID 449756); format: functional; conditions: Rattus norvegicus;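 also: cell death triggered by IL-1 beta plus TNF-alpha plus IFN-gamma mixture; protective hits raise ATP signal compared with cytokine alone wells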
[3] = Luminescence Cell-Based Dose Confirmation HTS to Identify Activators of 5'UTR Stem-Loop Driven Alpha-Synuclein mRNA Translation in H4 Neuroglioblastoma Cells. [Related pubchem assays: 1829 (Project Summary), 1814 (Primary HTS)]; format: functional
[4] = Luminescence Cell-Based Dose Response HTS to Identify Activators of Luciferase Translation or Activity in H4 […] Cells. [Related pubchem assays: 1829 (Project Summary), 1814 (Primary HTS)]; format: functional
[5] = biological target: T3, Heat shock factor protein 1 (Mus musculus, UniProt P38532); test: enhancement of HSF1-driven luciferase signal – cell-based, NIH3T3, luminescence, dose retest, confirmation (AID 435004); format: functional;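 also: stress induced by proteasome inhibitor MG132 added 30 min after compound; luciferase reporter driven by HSF1 response element in NIH3T3 cells; actives raise luminescence as potentiators of the MG132 stress response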
T3 sequence (P38532 whole entry): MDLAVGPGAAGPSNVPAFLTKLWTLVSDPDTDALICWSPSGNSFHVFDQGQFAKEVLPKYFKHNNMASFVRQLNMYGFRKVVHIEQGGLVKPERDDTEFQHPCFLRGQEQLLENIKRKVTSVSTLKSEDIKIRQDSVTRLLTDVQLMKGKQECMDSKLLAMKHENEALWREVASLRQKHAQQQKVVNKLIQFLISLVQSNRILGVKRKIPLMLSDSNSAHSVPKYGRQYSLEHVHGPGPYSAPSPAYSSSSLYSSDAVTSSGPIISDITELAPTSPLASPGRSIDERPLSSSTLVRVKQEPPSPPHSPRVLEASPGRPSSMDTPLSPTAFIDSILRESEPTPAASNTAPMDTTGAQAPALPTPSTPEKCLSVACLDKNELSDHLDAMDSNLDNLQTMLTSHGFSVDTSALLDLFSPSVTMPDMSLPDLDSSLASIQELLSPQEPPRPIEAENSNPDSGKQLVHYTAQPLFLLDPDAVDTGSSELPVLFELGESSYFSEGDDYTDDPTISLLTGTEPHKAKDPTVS

Cytochrome P450 3A4 = Cytochrome P450 3A4 (Homo sapiens, UniProt P08684);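 also: CYP3A4 tested as one member of a cytochrome P450 panel screen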
Cytochrome P450 2D6 = Cytochrome P450 2D6 (Homo sapiens, UniProt P10635);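 also: CYP2D6 member of a cytochrome P450 panel assay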
Protein skinhead-1 = biological target: T4, Protein skinhead-1 (Caenorhabditis elegans, UniProt P34707); format: functional
T4 sequence (P34707 whole entry): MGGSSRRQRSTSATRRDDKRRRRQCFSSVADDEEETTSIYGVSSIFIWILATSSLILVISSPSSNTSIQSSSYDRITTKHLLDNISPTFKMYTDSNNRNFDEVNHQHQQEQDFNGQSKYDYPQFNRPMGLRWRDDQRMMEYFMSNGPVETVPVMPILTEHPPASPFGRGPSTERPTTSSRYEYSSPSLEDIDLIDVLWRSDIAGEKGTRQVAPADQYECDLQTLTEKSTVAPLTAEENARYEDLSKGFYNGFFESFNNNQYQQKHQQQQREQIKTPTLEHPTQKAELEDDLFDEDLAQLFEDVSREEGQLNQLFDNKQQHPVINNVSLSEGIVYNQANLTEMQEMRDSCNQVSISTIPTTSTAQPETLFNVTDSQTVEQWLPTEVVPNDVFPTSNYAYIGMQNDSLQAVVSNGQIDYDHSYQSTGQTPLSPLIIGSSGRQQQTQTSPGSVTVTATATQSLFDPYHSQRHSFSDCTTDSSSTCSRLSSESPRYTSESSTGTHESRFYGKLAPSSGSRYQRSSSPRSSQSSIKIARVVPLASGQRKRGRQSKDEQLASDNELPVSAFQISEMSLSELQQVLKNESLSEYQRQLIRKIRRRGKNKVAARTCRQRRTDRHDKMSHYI

[6] = P. falciparum Dd2 growth inhibitors, dose response, SYBR Green, cherry-picked samples (AID 1159567); format: functional, cell-based
Cytochrome P450 2C19 = Cytochrome P450 2C19 (Homo sapiens, UniProt P33261); test: Cytochrome panel assay with activity outcomes. Panel member name: p450-cyp2c19 Compounds with AC50 equal or less than 10 uM are considered active; format: functional; conditions: read-out: AC50
Cytochrome P450 2C9 = Cytochrome P450 2C9 (Homo sapiens, UniProt P11712)
Sequence of Cytochrome P450 2C9 (P11712 whole entry): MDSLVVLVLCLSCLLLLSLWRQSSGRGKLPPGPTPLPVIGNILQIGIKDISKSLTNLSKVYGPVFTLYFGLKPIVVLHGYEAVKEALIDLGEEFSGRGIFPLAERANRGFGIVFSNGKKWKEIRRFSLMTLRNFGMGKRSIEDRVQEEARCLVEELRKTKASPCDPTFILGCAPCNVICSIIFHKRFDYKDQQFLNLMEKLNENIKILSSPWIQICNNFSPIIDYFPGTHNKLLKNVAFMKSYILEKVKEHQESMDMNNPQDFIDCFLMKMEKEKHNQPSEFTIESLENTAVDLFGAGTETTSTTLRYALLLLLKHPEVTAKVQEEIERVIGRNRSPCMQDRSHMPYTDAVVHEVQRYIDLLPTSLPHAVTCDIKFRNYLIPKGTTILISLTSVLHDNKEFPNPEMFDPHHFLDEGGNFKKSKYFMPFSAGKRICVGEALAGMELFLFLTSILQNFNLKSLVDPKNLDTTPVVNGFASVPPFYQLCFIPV

Sequence of Cytochrome P450 2D6 (P10635 whole entry): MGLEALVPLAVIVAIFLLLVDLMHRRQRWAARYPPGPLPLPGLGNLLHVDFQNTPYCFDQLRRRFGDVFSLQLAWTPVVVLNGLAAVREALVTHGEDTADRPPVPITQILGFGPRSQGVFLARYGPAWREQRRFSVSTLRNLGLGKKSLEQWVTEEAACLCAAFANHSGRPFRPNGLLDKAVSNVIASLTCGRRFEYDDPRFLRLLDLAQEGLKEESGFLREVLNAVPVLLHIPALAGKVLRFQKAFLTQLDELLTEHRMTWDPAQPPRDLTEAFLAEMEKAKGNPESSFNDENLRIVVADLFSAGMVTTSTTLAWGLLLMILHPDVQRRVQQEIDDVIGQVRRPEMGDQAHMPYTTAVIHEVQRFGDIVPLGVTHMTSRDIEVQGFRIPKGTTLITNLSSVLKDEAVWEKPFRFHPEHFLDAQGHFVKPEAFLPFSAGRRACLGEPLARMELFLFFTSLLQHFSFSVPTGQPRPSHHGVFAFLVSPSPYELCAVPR
Sequence of Cytochrome P450 3A4 (P08684 whole entry): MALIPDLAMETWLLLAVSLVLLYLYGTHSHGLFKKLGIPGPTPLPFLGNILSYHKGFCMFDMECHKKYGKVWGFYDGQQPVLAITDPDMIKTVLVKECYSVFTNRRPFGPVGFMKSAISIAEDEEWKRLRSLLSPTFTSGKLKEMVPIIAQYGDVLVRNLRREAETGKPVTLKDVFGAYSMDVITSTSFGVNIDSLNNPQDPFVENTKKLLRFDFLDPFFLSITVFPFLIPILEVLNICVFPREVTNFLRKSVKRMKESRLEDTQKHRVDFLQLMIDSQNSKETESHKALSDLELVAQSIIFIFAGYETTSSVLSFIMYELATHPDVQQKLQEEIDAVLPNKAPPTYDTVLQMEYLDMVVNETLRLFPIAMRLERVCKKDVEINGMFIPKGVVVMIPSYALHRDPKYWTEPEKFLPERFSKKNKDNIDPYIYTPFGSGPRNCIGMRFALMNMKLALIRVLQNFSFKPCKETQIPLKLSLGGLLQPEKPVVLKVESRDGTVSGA
Sequence of Cytochrome P450 2C19 (P33261 whole entry): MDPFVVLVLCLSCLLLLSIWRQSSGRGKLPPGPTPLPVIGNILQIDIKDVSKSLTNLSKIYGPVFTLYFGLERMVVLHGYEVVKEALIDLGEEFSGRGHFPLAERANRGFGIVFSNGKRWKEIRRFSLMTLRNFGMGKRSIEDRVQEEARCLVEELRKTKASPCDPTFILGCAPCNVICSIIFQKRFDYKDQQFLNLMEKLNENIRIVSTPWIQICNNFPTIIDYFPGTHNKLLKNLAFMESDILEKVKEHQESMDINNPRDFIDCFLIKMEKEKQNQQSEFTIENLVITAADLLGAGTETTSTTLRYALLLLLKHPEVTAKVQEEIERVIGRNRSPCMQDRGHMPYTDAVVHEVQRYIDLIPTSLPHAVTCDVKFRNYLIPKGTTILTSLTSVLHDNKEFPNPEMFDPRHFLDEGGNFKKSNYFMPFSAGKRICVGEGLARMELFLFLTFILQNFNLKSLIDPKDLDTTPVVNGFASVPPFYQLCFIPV

EC50 [1]: > 300 µM (not active)
EC50 [2]: > 300 µM (not active)
Structure (SMILES): COc1ccccc1-c1cnn2c(NCc3ccccc3)cc(C)nc12

Structure (SMILES): COc1nnc(-c2ccc(N3CCCCC3)c(NC(=O)C3CCCCC3)c2)c2ccccc12
AC50 (INS1): 6.09 µM (active)

Structure (SMILES): CCN(CC)c1nc(C)nc2c1cnn2CCc1ccccc1
EC50 [3]: 85.2 µM (active)
EC50 [4]: 92.1 µM (active)

EC50 [5]: 35.6 µM (active)
Structure (SMILES): N#C/C(=C\c1cn(Cc2ccccc2)c2ccccc12)C(=O)NCc1ccco1

Structure (SMILES): Cc1ccccc1/C=C1\CCCc2ccccc2C1=O
EC50 [3]: 0.172 µM (active)
EC50 [4]: 0.328 µM (active)

AC50 (Cytochrome P450 3A4): 12.6 µM (inconclusive)
AC50 (Cytochrome P450 2D6): 31.6 µM (inconclusive)
Structure (SMILES): CN1CC[C@@]2(CCN3CCc4c(oc5ccccc45)[C@@H]3C2)N(C)C1=O

IC50 (Protein skinhead-1): > 100 µM (inactive)
Structure (SMILES): CCN(CC(=O)Nc1ccccc1C(F)(F)F)C(=O)c1ccc(NC(=O)c2cccs2)cc1

Structure (SMILES): COc1ccccc1-c1ccc([C@@H]2[C@@H](CO)N3CCCCN(C(=O)c4ccncc4)C[C@@H]23)cc1
AC50 [6]: 14.1 µM (active)

EC50 [5]: > 260 µM (inactive)
Structure (SMILES): COc1ccc(C(=O)N(C)CC(O)c2ccccc2)cc1OC1CCN(C(C)=O)CC1 (stereo unspecified)

EC50 [5]: > 260 µM (inactive)
Structure (SMILES): CCCC(=O)O/N=C(\c1ccccc1)c1ccncc1

IC50 (Protein skinhead-1): > 100 µM (inactive)
Structure (SMILES): O=C(CSc1nnc(CN2CCOCC2)n1-c1ccc(Cl)cc1)N1CCc2ccccc21

IC50 (Protein skinhead-1): > 100 µM (inactive)
Structure (SMILES): Cc1ccc(NC(=O)CSCc2cc(=O)n3ccsc3n2)cc1

Structure (SMILES): COc1ccc([C@H]2CC(=O)C=C(c3ccnc4ccc(Cl)cc34)C2)cc1
AC50 (INS1): 2.64 µM (active)

AC50 (Cytochrome P450 2D6): 12.6 µM (inconclusive)
Structure (SMILES): COc1ccccc1CCn1c(=O)c(-c2ccccc2)nc2cncnc21

IC50 (Protein skinhead-1): > 100 µM (inactive)
Structure (SMILES): CCCCn1nnnc1NCc1ccc(C)s1

EC50 [1]: > 300 µM (not active)
EC50 [2]: > 300 µM (not active)
Structure (SMILES): CC(=O)n1c(/C=N/c2ccccc2)c(O)c2ccccc21

Structure (SMILES): O=C(Nc1cc(-c2ccccc2)nn1C1CCCCC1)c1ccc(Cl)cc1
AC50 (INS1): 5.2 µM (active)

Structure (SMILES): O=C(CN1C(=O)NC2(CCCCCC2)C1=O)c1ccc2c(c1)OCCO2
EC50 [3]: 4.64 µM (active)
EC50 [4]: 0.676 µM (active)

EC50 [5]: > 260 µM (inactive)
Structure (SMILES): CSc1ccc(Cl)c(C(=O)OCC(=O)N(C)CCC#N)c1

Structure (SMILES): C=CCOc1ccc(C2OC34CCCCC3C(C#N)(C#N)C2(C#N)C(=N)O4)cc1 (stereo unspecified)
EC50 [1]: 12.5 µM (active)
EC50 [2]: 9.41 µM (active)

EC50 [1]: > 300 µM (inconclusive)
EC50 [2]: 31.3 µM (active)
Structure (SMILES): COc1cc(C2C3CN(C)CC=C3C(C#N)=C(N)C2(C#N)C#N)ccc1OC(C)C (stereo unspecified)

AC50 (Cytochrome P450 2C19): 8.91 µM (inconclusive)
AC50 (Cytochrome P450 2C9): 0.282 µM (inconclusive)
Structure (SMILES): CCNC(=O)CC1C(=O)N(c2ccc(F)cc2)C(=O)N1CCc1ccc(OC)cc1 (stereo unspecified)
